In PubChem BioAssay (NCI) one finds TGI and GI50 data, which are given here for 13 molecules.

Common to all, as to assay: inhibition of tumour cell growth, NCI panel, 48 h
The test system of assay [1] is A549 NSCLC.
Assay [2] has as its system OVCAR-4 ovarian.
Assay [3] deals with CAKI-1 renal.
Assay [4] has as its system HCT-15 colon.
Assay [5] deals with HS 578T breast.
Assay [6] concerns NCI-H460 lung.
In assay [7] the test system is PC-3 prostate.

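Cells were grown in 96-well plates and exposed to each compound for 48 hours at five concentrations; endpoints were interpolated linearly between bracketing concentrations, or set to the highest concentration if not reached. GI50 = concentration required for 50% inhibition of growth. At the TGI there is no net growth.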

`COc1cc([C@@H]2c3cc4c(cc3[C@@H](c3c(O)cc(O)c5c3O[C@H](c3ccc(O)c(O)c3)[C@H](OC(=O)c3cc(O)c(O)c(O)c3)C5)[C@H]3COC(=O)[C@H]23)OCO4)cc(OC)c1O`: the TGI in assay [1] was 99.2 µM; in assay [2], over 100 µM; in assay [3] it was over 100 µM; in assay [4] it was over 100 µM; in assay [5], over 100 µM; in assay [6] it was over 100 µM. Further, in assay [7], the TGI was over 100 µM.
Consider `COc1cc(/C(=C2/O[C@@H]([C@H]3COC(C)(C)O3)[C@H]3OC(C)(C)O[C@@H]23)c2ccc3c(c2)OCO3)cc(OC)c1OC`, for which the GI50 in assay [1] was over 25 µM; in assay [2], 8.81 µM; in assay [3], over 25 µM; in assay [4], over 25 µM; in assay [5], over 25 µM; in assay [6] it was over 25 µM. The GI50 in assay [7] is over 25 µM. For the same molecule, the TGI in assay [1], in assay [2], in assay [3], in assay [4], in assay [5] and in assay [6] was over 25 µM throughout. For the same molecule, in assay [7], the TGI was over 25 µM.
Take `CC1CCOc2ccc(cc2)C=Nc2ccc(cc2)-c2ccc(cc2)N=Cc2ccc(cc2)OCC1` (stereo not drawn): the TGI in assay [1], in assay [2], in assay [3], in assay [4], in assay [5] and in assay [6] was over 100 µM throughout. In assay [7], this molecule showed a TGI of over 100 µM.
On to `O=C1O[C@H]2C3C4CCC(C4[C@@H]2I)[C@H]13` (stereo partly drawn), for which the TGI in assay [1], in assay [2], in assay [3], in assay [4], in assay [5] and in assay [6] was over 100 µM throughout. The TGI in assay [7] was over 100 µM.
`N#Cc1c(N2CCCC2)nsc1Nc1ccc(F)cc1`: the TGI in assay [1], in assay [2], in assay [3], in assay [4], in assay [5] and in assay [6] was over 100 µM each time. In assay [7], this molecule displayed a TGI of over 100 µM.
On to `OC(C1CCCCCCCCCC1)C(O)C1CCCCCCCCCC1` (stereo not drawn), for which the TGI in assay [1], in assay [2], in assay [3], in assay [4], in assay [5] and in assay [6] was over 100 µM throughout. In addition, the TGI in assay [7] was over 100 µM.
Turning to `O=S(c1ccc(Cl)cc1)c1ccccc1C1=NCCN1` (stereo not drawn), the TGI in assay [1], in assay [2], in assay [3], in assay [4], in assay [5] and in assay [6] was over 100 µM throughout. The TGI in assay [7] was over 100 µM.
For the molecule `N#Cc1ccc2[nH]c3c(c2c1)CC(=O)Nc1ccccc1-3`, the TGI in assay [1], in assay [2], in assay [3], in assay [4], in assay [5] and in assay [6] was over 100 µM throughout. The molecule further registered a TGI in assay [7] of over 100 µM.
Consider `CC(=O)OCC1OC(n2c(N)c(C#N)c(-c3cccc(Cl)c3)c(C#N)c2=S)C(OC(C)=O)C(OC(C)=O)C1OC(C)=O` (stereo not drawn), for which the TGI in assay [1] is over 100 µM; in assay [2], over 100 µM; in assay [3] it was over 100 µM; in assay [4] it was over 100 µM; in assay [5], 91.5 µM; in assay [6], over 100 µM. Moreover, the TGI in assay [7] was over 100 µM.
In the case of `CC(=O)N1C(Nc2cccc3nc(C)ccc23)CCN1c1ccccc1` (stereo not drawn), the TGI in assay [1], in assay [2], in assay [3], in assay [4], in assay [5] and in assay [6] was over 10 µM each time. In assay [7], this molecule returned a TGI of over 10 µM.
In the case of `CN(/N=C/c1ccc(Cl)cc1)C1=NCCCCN1`, the TGI in assay [1], in assay [2], in assay [3], in assay [4], in assay [5] and in assay [6] was over 100 µM each time. Besides, the TGI in assay [7] is over 100 µM.
For the molecule `CC(=O)OCC1OC(SC2=NC(=O)/C(=C/c3ccccc3)S2)C(OC(C)=O)C(OC(C)=O)C1OC(C)=O` (stereo not drawn), the TGI is over 100 µM in assay [1]; over 100 µM in assay [2]; 12 µM in assay [3]; over 100 µM in assay [4]; 75.7 µM in assay [5]; over 100 µM in assay [6]. The molecule further returned a TGI in assay [7] of over 100 µM.
With `O=c1[nH]nc(Cc2ccc(Cl)cc2)n1/N=C/c1c[nH]c2ccccc12`, the TGI in assay [1], in assay [2], in assay [3], in assay [4], in assay [5] and in assay [6] was over 100 µM in each case. Moreover, the TGI in assay [7] was over 100 µM.
